Measurements: the CheMixHub viscosity set

Test: xn = mol fraction of the nth substance listed

CCc1ccccc1 + CCCO
viscosity [mPa·s], 101.33 kPa
Conditions	x2 = 0.3	x2 = 0.5	x2 = 0.7	x2 = 0.9
303 K	0.646	0.826	1.01	1.335
313 K	0.561	0.697	0.839	1.084
323 K	0.494	0.598	0.7	0.886

COCCOCCOCCOCCOC + CCCO
viscosity [mPa·s], 101 kPa
Conditions	298.15 K	308.15 K
x1 = 0.0071	1.913	1.492
x1 = 0.0125	1.9	1.485
x1 = 0.0309	1.872	1.475
x1 = 0.0504	1.852	1.463
x1 = 0.1024	1.841	1.467
x1 = 0.1342	1.861	1.488
x1 = 0.1847	1.908	1.528
x1 = 0.2444	1.989	1.593
x1 = 0.2916	2.062	1.645
x1 = 0.3271	2.126	1.697
x1 = 0.369	2.192	1.754
x1 = 0.4386	2.31	1.84
x1 = 0.4814	2.384	1.896
x1 = 0.5238	2.466	1.953
x1 = 0.5941	2.577	2.041
x1 = 0.6423	2.665	2.104
x1 = 0.7174	2.797	2.205
x1 = 0.7487	2.855	2.247
x1 = 0.7864	2.91	2.291
x1 = 0.8401	3.007	2.36

Clc1cccc2ccccc12 + CCCO
viscosity [mPa·s], 101.33 kPa
Conditions	x1 = 0.1004	x1 = 0.2017	x1 = 0.2983	x1 = 0.395	x1 = 0.5003	x1 = 0.6002	x1 = 0.6993	x1 = 0.7991	x1 = 0.9003
298.15 K	1.968	2.039	2.091	2.172	2.255	2.349	2.448	2.567	2.716
303.15 K	1.745	1.805	1.854	1.918	1.999	2.077	2.166	2.275	2.417
308.15 K	1.57	1.62	1.672	1.714	1.789	1.86	1.943	2.043	2.178

CCc1ccccc1 + CCO
viscosity [mPa·s], 101.33 kPa
Conditions	x2 = 0.4	x2 = 0.6	x2 = 0.8	x2 = 0.9
303 K	0.625	0.732	0.842	0.9
313 K	0.547	0.627	0.706	0.752
323 K	0.482	0.54	0.602	0.632

Clc1cccc2ccccc12 + CCO
viscosity [mPa·s], 101.33 kPa
Conditions	x1 = 0.0773	x1 = 0.2002	x1 = 0.3006	x1 = 0.3989	x1 = 0.5008	x1 = 0.5979	x1 = 0.7026	x1 = 0.8011	x1 = 0.9009
298.15 K	1.238	1.455	1.63	1.779	1.953	2.11	2.298	2.47	2.655
303.15 K	1.119	1.314	1.471	1.606	1.757	1.89	2.045	2.214	2.389
308.15 K	1.016	1.192	1.334	1.456	1.588	1.714	1.865	2.006	2.158

COCCOCCOCCOCCOC + CCOC(=O)OCC
298.15 K, 101.33 kPa
Conditions	viscosity [mPa·s]
x1 = 0.0049	0.752
x1 = 0.014	0.772
x1 = 0.0274	0.796
x1 = 0.044	0.824
x1 = 0.068	0.879
x1 = 0.0984	0.938
x1 = 0.1416	1.029
x1 = 0.2036	1.164
x1 = 0.2814	1.348
x1 = 0.3146	1.434
x1 = 0.3497	1.519
x1 = 0.3949	1.634
x1 = 0.4546	1.798
x1 = 0.5017	1.939
x1 = 0.5551	2.083
x1 = 0.5999	2.204
x1 = 0.6478	2.349
x1 = 0.691	2.478
x1 = 0.7376	2.614
x1 = 0.7849	2.76
x1 = 0.8377	2.915
x1 = 0.8758	3.028
x1 = 0.9345	3.218
x1 = 0.9719	3.328
x2 = 0.0132	3.378

COCCOCCOCCOCCOC + CCOC(C)=O
viscosity [mPa·s], 101 kPa
Conditions	298.15 K	308.15 K	318.15 K
x1 = 0.0108	0.448	0.399	0.364
x1 = 0.0195	0.462	0.413	0.375
x1 = 0.0488	0.514	0.456	0.413
x1 = 0.0905	0.594	0.521	0.465
x1 = 0.1406	0.695	0.607	0.534
x1 = 0.1786	0.779	0.673	0.591
x1 = 0.2377	0.919	0.784	0.68
x1 = 0.3377	1.176	0.988	0.847
x1 = 0.4796	1.579	1.315	1.092
x1 = 0.5793	1.896	1.549	1.282
x1 = 0.6422	2.11	1.699	1.4
x1 = 0.7422	2.453	1.97	1.549
x1 = 0.8246	2.726	2.169	1.755
x1 = 0.8574	2.878	2.258	1.826
x1 = 0.9081	3.019	2.398	1.921
x1 = 0.9454	3.159	2.488	1.998
x1 = 0.9792	3.305	2.581	2.072

Clc1ccccc1 + CCOC(C)=O
viscosity [mPa·s], 101 kPa
Conditions	298.15 K	308.15 K
x2 = 0.0415	0.729	0.658
x2 = 0.1504	0.669	0.607
x2 = 0.2503	0.621	0.567
x2 = 0.3519	0.58	0.531
x2 = 0.4264	0.553	0.507
x2 = 0.4878	0.534	0.489
x2 = 0.5527	0.515	0.472
x2 = 0.6519	0.489	0.448
x2 = 0.7505	0.468	0.428
x2 = 0.8515	0.449	0.409
x2 = 0.9389	0.436	0.396

N#CCCCCC#N + CCOC(C)=O
303.15 K, 101.33 kPa
Conditions	viscosity [mPa·s]
x1 = 0.1075	0.5353
x1 = 0.3039	0.8893
x1 = 0.3934	1.116
x1 = 0.4973	1.451
x1 = 0.5975	1.861
x1 = 0.6944	2.366
x1 = 0.85	3.442

C=CC(=O)OCC + CCOCCOCCO
viscosity [mPa·s], 101 kPa
Conditions	293.15 K	298.15 K	303.15 K	308.15 K	313.15 K	318.15 K
x2 = 0.0707	0.666	0.624	0.587	0.551	0.521	0.499
x2 = 0.1417	0.76	0.708	0.662	0.62	0.582	0.547
x2 = 0.2167	0.879	0.813	0.756	0.704	0.66	0.619
x2 = 0.2803	0.997	0.918	0.85	0.79	0.735	0.686
x2 = 0.3626	1.192	1.075	0.989	0.914	0.847	0.788
x2 = 0.4228	1.335	1.227	1.113	1.024	0.946	0.877
x2 = 0.5004	1.571	1.438	1.305	1.175	1.079	0.995
x2 = 0.5659	1.812	1.628	1.477	1.329	1.214	1.112
x2 = 0.6497	2.136	1.927	1.737	1.563	1.411	1.287
x2 = 0.7196	2.467	2.207	1.956	1.759	1.599	1.459
x2 = 0.791	2.845	2.512	2.233	1.998	1.797	1.627
x2 = 0.869	3.342	2.93	2.558	2.302	2.046	1.857
x2 = 0.9299	3.752	3.274	2.84	2.552	2.258	2.044
